Measured values from publication PMC7728754, “MRI-based molecular imaging of epicardium-derived stromal cells (EpiSC) by peptide-mediated active targeting” (Scientific Reports, 2020).
“Also recorded” adds a separate entry of the source. Blank lines part the entries; values can stand above or below the substance they belong to.

Legend:
cultured EpiSCs [1] = assay: Flow cytometry binding of FAM-labelled EPs to cultured EpiSCs; assay type: cell-based, rat; conditions: 5 µg/ml FAM-labelled peptide, up to 120 min, 37 °C, n = 5
Method: EpiSCs were detached from the cell culture flask with PBS-EDTA (5 mM) and resuspended in DMEM at a concentration of 0.5 × 10^6 cells/ml. Cell suspensions were incubated with 5 µg/ml of EP1, EP2, EP3, EP7 and EP9 for up to 120 min at 37 °C. After 10, 20, 40, 80 and 120 min, samples were transferred into tubes containing ice-cold MACS buffer (PBS, 2% FCS, 1 mM EDTA) to stop the reaction. Cells were centrifuged for 5 min at 500 × g and 4 °C, washed twice and finally suspended in MACS buffer with DAPI (4′,6-Diamidino-2-phenylindole dihydrochloride; 1 µg/ml) to label dead cells. Flow cytometric analysis was performed on a BD FACS Canto II (BD Biosciences, Heidelberg, Germany).

EpiSCs = assay: Surface plasmon resonance, EpiSCs over immobilized EP9; assay type: binding, rat; conditions: SPR, 25 °C, PBS
Method: (§1) To analyse the interaction kinetics between peptide EP9 and EpiSCs, we used a BIAcore X100 system equipped with a CM5 sensor chips (GE Healthcare GmbH, Solingen, Germany). EP9 peptide was immobilized to the surface of the CM5 chip (600 µg/ml; 30 µl/min) using a thiol coupling chemistry (GE Healthcare GmbH). Presence of a free SH group at the C-terminal of EP9 peptide enabled us to efficiently immobilize it through a thiol coupling procedure. Afterward, EpiSCs and THP-1 monocytes (ATCC: TIB-202; 10,000 cells/µl) were injected over the sensor chip to monitor the association between immobilized EP9 peptide and the cells. After injection of the cells, dissociation phase was monitored by introduction of buffer for a period of 300 s. In another experimental strategy, increasing numbers of EpiSCs (200, 400 and 800 × 10^3) were flushed over the immobilized peptide EP9 with a flow rate of 30 µl/min and dissociation was measured for an identical period of time. Finally, to block the EP9 binding sites, EpiSCs were pre-incubated for 30 min with 5 µg of EP9 before injection into the BIAcore system and subjected to the same procedure as described above. All SPR experiments were carried out at 25 °C in PBS.

THP-1 monocytes = assay: Surface plasmon resonance, THP-1 monocytes over immobilized EP9; assay type: binding, human; conditions: SPR, CM5 chip, 30 µl/min, 25 °C, PBS, negative control cells
Method: as §1

[2] = tested on: primary human CD14+ monocytes; assay: Flow cytometry binding of EP9 to primary human monocytes; assay type: cell-based; conditions: 1.9 µg EP9 in 600 µl cell suspension, up to 45 min, 37 °C, n = 4 (Fig. S3)
Method: Blood was withdrawn from healthy human volunteers by venous puncture and 10 ml of whole blood were mixed with 10 ml of PBS and gently laid on top of Histopaque-1077 (Sigma-Aldrich Chemie GmbH). After density centrifugation, the PBMC layer was diluted 1:1 with PBS and a centrifugation step was performed. The cell pellet was subjected to erythrocyte lysis using hypotonic buffer for 10 min at 4 °C. After centrifugation, the cells were resuspended in 8.5 ml DMEM. The cell suspension (600 µl) was incubated with 1.9 µg of EP9 for 45 min, at 37 °C. After 5, 15 and 45 min, samples were transferred into ice cold MACS buffer to stop the reaction and centrifuged for 5 min at 500 × g. Cells were washed with MACS buffer, resuspended in CD14-PE/Cy7 (PE/Cy7 anti-human CD14, Clone 63D3, BioLegend, San Diego, USA) antibody solution and incubated for 30 min at 4 °C. Flow cytometric analysis was performed after two washing steps and suspension in MACS buffer with DAPI (1 µg/ml) using a BD FACS Canto II.

EpiSC and THP-1 cells = assay: Cytotoxicity by DAPI flow cytometry; assay type: cell-based; conditions: 200 µl of cells + 5 µl EP9PFCs or 1.9 µg EP9, up to 120 min, 37 °C, n = 3
Method: EpiSC and THP-1 cells were incubated with EP9 peptide or ^EP9PFCs (200 µl of cells + 5 µl ^EP9PFCs or 1.9 µg EP9) over a period of 120 min at 37 °C. Samples were withdrawn after 0 min, 15 min, 30 min, 60 min and 120 min and analyzed by flow cytometry. Cells were stained with DAPI (1 µg/ml) to label dead cells.

cultured EpiSCs [3] = assay: Impact of storage on EP9/EP9PFC targeting efficacy; assay type: cell-based, rat; conditions: stored in phosphate buffer at 4 °C for 24 h, then 30 min at 37 °C on cultured EpiSCs, flow cytometry, n = 3
Method: EP9 and ^EP9PFCs were stored in phosphate buffer at 4 °C for 6 h and 24 h. Subsequently EP9 and ^EP9PFCs were incubated on cultured EpiSCs for 30 min at 37 °C. Cells were washed twice with MACS buffer and then analyzed by flow cytometry.

Substance: KLMLPRP [EP9]
- Binding to cultured EpiSCs (cultured EpiSCs [1]): strong binding; also recorded: best binding properties
- Association of EpiSCs to immobilized peptide (EpiSCs; CM5 chip, thiol coupling, 30 µl/min): rapidly associated
- Dissociation rate (EpiSCs; EpiSCs over thiol-immobilized EP9, 30 µl/min): 0.005 s⁻¹
- Association of THP-1 monocytes to immobilized peptide (THP-1 monocytes): only minor association
- Binding to primary monocytes [2]: not detectable
- Acute cytotoxic effects (EpiSC and THP-1 cells): did not find evidence for acute cytotoxic effects
- Cellular labelling of EpiSCs after storage (cultured EpiSCs [3]): severely reduced

Substance: QSHALMA [EP7]
- Binding to cultured EpiSCs (cultured EpiSCs [1]): strong binding

More lines, now with the values ahead:

- Binding to cultured EpiSCs (cultured EpiSCs [1]): strong binding
Substance: ATKTIAP [EP2]

- Binding to cultured EpiSCs (cultured EpiSCs [1]): strong binding
Substance: SEPIVPL [EP1]

- Binding to cultured EpiSCs (cultured EpiSCs [1]): strong binding
Substance: THVYRDE [EP3]
